From patent US20260337156A1, “SOLUBILIZING COMPOUNDS” (Vivesto AB, priority 2022, published 2026)

Assays:
Type in all cases: physicochemical
[1] = micellar particle size and polydispersity index (ZetaSizer, dynamic light scattering) of drug formulations at different dilutions; conditions: micelles with docetaxel
Procedure: The particle size of the micelles in the composition is typically in the range of about 5 to about 150 nm. The particle size may be determined e.g. using Dynamic Light Scattering (DLS) in 0.9% NaCl at 1 mg/mL drug concentration, preferably using a red laser with a wavelength of 633 nm.
Micellar size was measured using a ZetaSizer from Malvern Panalytical. […]
20 mg of example 1 was dispensed into a 25 mL round bottom flask and dissolved in methanol (3 mL). 800 μL of a stock solution of docetaxel in methanol (5 mg/mL) was added. The solution was evaporated to dryness in a rotary evaporator. Final drying was performed in a desiccator to remove residual solvent. Hydration of the dried film was performed by adding water for injection (1.0 mL) to a concentration of 4 mg/mL of docetaxel. The 4 mg/mL concentration was further diluted with 0.9% sodium chloride according to the table below. […]
(§1) A serial dilution was performed for the system docetaxel:compound 1. A stock solution of docetaxel in methanol was mixed with a stock solution of the micelle forming agent (compound 1) in a round bottom flask at a weight ratio of 1:5. The mixture was evaporated to dryness in a rotary evaporator. Final drying was performed in a desiccator to remove residual solvent. Hydration of the dried film was performed by adding water for injection (1.0 mL) to a concentration of 1 mg/mL of docetaxel. The resulting solution was filtered through a 0.22 μm sterile filter and further diluted with 0.9% sodium chloride solution.
(§2) 4.5 mg of compound 1 was dispensed into a 25 mL round bottom flask and dissolved in methanol (2 mL). 1500 μL of a stock solution of cabazitaxel in methanol (1.00 mg/mL) was added. The solution was evaporated to dryness in a rotary evaporator. Final drying was performed in a desiccator to remove residual solvent. […]

[2] = particle size and polydispersity index of drug micelles over time (ZetaSizer); conditions: docetaxel:compound 1:5, docetaxel 0.5 mg/mL
Procedure: Micellar size was measured using a ZetaSizer from Malvern Panalytical.
as §1, with “A” for “A serial dilution was performed for the system docetaxel:compound 1. A”, “compound 1” for “the micelle forming agent (compound 1)”, “flask.” for “flask at a weight ratio of 1:5.”, “solution to 0.5 mg/mL of docetaxel. […]” for “solution.”
(§3) A stock solution of cyclosporin in methanol was mixed with a stock solution of compound 1 in a round bottom flask. The mixture was evaporated to dryness in a rotary evaporator. Final drying was performed in a desiccator to remove residual solvent. Hydration of the dried film was performed by adding water for injection (1.0 mL) to a concentration of 1 mg/mL of cyclosporin. The resulting solution was filtered through a 0.22 μm sterile filter and further diluted with 0.9% sodium chloride solution to 0.5 mg/mL of cyclosporin. The final weight ratio of cyclosporin to micelle forming agent was 1:3.
(§4) A stock solution of docetaxel in methanol was mixed with a stock solution of compound 3 in a round bottom flask. The mixture was evaporated to dryness in a rotary evaporator. Final drying was performed in a desiccator to remove residual solvent. Hydration of the dried film was performed by adding water for injection (1.0 mL) to a concentration of 1 mg/mL of docetaxel. The resulting solution was filtered through a 0.22 μm sterile filter and further diluted with 0.9% sodium chloride solution to 0.5 mg/mL of Docetaxel. The final weight ratio of docetaxel to micelle forming agent was 1:3.
as §3, with “compound 3” for “compound 1”
as §4, with “4” for “3”, “docetaxel. […]” for “Docetaxel. The final weight ratio of docetaxel to micelle forming agent was 1:3.”
as §4, with “compound 5” for “compound 3”, “of docetaxel.” for “of Docetaxel.”
A stock solution of cabazitaxel in methanol was mixed with a stock solution of compound 5 in a round bottom flask. The mixture was evaporated to dryness in a rotary evaporator. Final drying was performed in a desiccator to remove residual solvent. Hydration of the dried film was performed by adding water for injection (1.0 mL) to a concentration of 1 mg/mL of cabazitaxel. […]

[3] = appearance of the hydrated drug formulation; conditions: formulation with docetaxel
Procedure: 3.8 mg of compound 1 was dispensed into a 25 mL round bottom flask and dissolved in methanol (2 mL). 240 μL of a stock solution of docetaxel in methanol (5 mg/mL) was added.
(§5) The solution was evaporated to dryness in a rotary evaporator. Final drying was performed in a desiccator to remove residual solvent. Hydration of the dried film was performed by adding water for injection (1.2 mL). […] Drug loading capacity is defined as the ratio of amount API:(API+excipient).
(§6) 11 mg of example 1 was dispensed into a 25 mL round bottom flask and dissolved in methanol (2 mL). 740 μL of a stock solution of docetaxel in methanol (4.96 mg/mL) was added. The solution was evaporated to dryness in a rotary evaporator. Final drying was performed in a desiccator to remove residual solvent.
(§7) 4.5 mg of compound 1 was dispensed into a 25 mL round bottom flask and dissolved in methanol (2 mL). 1500 μL of a stock solution of cabazitaxel in methanol (1.00 mg/mL) was added. The solution was evaporated to dryness in a rotary evaporator. Final drying was performed in a desiccator to remove residual solvent.
as §2, with “cyclosporin” for “cabazitaxel”
4.5 mg of compound 4 was dispensed into a round bottom flask and dissolved in methanol (3 mL). […] of a stock solution of docetaxel in methanol (4.96 mg/mL) was added. The solution was evaporated to dryness in a rotary evaporator. Final drying was performed in a desiccator (40 min) to remove residual solvent. Rehydration of the dried film was performed by adding 0.9% sodium chloride solution (1.5 mL).

[4] = drug loading capacity (ratio of amount API:(API+excipient)); conditions: docetaxel 1.25 mg + compound 4.0 mg
Procedure: as §5
20 mg of example 1 was dispensed into a 25 mL round bottom flask and dissolved in methanol (3 mL). 800 μL of a stock solution of docetaxel in methanol (5 mg/mL) was added. The solution was evaporated to dryness in a rotary evaporator. Final drying was performed in a desiccator to remove residual solvent. Hydration of the dried film was performed by adding water for injection (1.0 mL) to a concentration of 4 mg/mL of docetaxel. The 4 mg/mL concentration was further diluted with 0.9% sodium chloride according to the table below.
as §6, §7
as §7, with “cyclosporin” for “cabazitaxel”
4.0 mg of compound 2 was dispensed into a 25 mL round bottom flask and dissolved in methanol (3 mL). 250 μL of a stock solution of docetaxel in methanol (5 mg/mL) was added. The solution was evaporated to dryness in a rotary evaporator. Final drying was performed in a desiccator to remove residual solvent. Hydration of the dried film was performed by adding water for injection (1.25 mL). […]
as §6, with “4.5” for “11”, “compound 3” for “example 1”, “(3” for “(2”, “305” for “740”
as §6, with “4.5” for “11”, “compound 3” for “example 1”, “(3” for “(2”, “[…]” for “740”

[5] = ratio 3:1, 0.9% NaCl, docetaxel conc. 0.25 mg/mL
[6] = ratio 3:1, 0.9% NaCl, docetaxel conc. 0.5 mg/mL
[7] = ratio 3:1, 0.9% NaCl, docetaxel conc. 1 mg/mL
[8] = 1.25 mg docetaxel + 4.0 mg compound, water 1.25 mL, mixed 1:1 v/v with 0.9% NaCl

COc1cc(C)c(/C=C/C(C)=C/C=C/C(C)=C/C(=O)N(CC(O)CS(=O)(=O)[O-])C2CCCCC2)c(C)c1C.[Na+] (stereo not drawn) [Compound 4]
Particle size [1, 5]: 8.7 nm
Polydispersity index [1, 5]: 0.31
Particle size [1, 6]: 8.9 nm
Polydispersity index [1, 6]: 0.25
Particle size [1, 7]: 8.9 nm
Polydispersity index [1, 7]: 0.32
change of particle size and polydispersity index over time ([2]; 0-24 h): Increase in the particle size and variations of the polydispersity index over time were noted
Particle size ([2]; time 0 h): 34.56 nm
Polydispersity index ([2]; time 0 h): 0.26
Particle size ([2]; time 1 h): 54.37 nm
Polydispersity index ([2]; time 1 h): 0.14
Particle size ([2]; time 2 h): 56.46 nm
Polydispersity index ([2]; time 2 h): 0.12
Particle size ([2]; time 4 h): 58.90 nm
Polydispersity index ([2]; time 4 h): 0.11
Particle size ([2]; time 6 h): 59.79 nm
Polydispersity index ([2]; time 6 h): 0.12
Particle size ([2]; time 24 h): 78.72 nm
Polydispersity index ([2]; time 24 h): 0.08
appearance of formulation [3]: yellow transparent solution

COc1cc(C)c(/C=C/C(C)=C/C=C/C(C)=C/C(=O)N(CCCS(=O)(=O)[O-])C2CCCCC2)c(C)c1C.[Na+] [Compound 2]
Particle size [1, 8]: 17.9 nm
Polydispersity index [1, 8]: 0.72
Drug loading capacity [4]: 24%
appearance of formulation [3]: yellow transparent solution
